Experimental data as given in article PMC8934836 (EJNMMI Radiopharmacy and Chemistry, 2022).
Read-outs that look alike come from different tables or passages of the source.

What was measured:
[1] = Preliminary studies on storage stability of the precursor; format: physicochemical; conditions: room temperature
α5β3γ2 human GABAARs = molecular target: T1, α5β3γ2 human GABAARs (Homo sapiens, UniProt P18507+P31644); experiment: [^3H]flumazenil in vitro binding assay, α5β3γ2
T1 construct: expressed in transfected cells; host or cells: mouse fibroblasts, stably expressing; membranes prepared
T1 sequence (P31644 32-462): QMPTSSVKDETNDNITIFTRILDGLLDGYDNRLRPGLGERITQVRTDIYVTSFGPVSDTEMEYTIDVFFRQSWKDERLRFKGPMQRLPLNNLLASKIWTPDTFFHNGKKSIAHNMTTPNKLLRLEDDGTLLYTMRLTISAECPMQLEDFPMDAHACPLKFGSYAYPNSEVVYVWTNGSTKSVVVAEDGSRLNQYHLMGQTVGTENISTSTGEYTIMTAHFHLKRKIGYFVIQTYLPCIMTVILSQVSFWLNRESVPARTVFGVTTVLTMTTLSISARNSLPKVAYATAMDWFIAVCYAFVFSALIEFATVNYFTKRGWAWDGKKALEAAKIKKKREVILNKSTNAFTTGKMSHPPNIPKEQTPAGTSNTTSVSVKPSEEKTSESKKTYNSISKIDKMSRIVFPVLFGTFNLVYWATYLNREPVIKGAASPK
T1 sequence (P28472 26-473 partner): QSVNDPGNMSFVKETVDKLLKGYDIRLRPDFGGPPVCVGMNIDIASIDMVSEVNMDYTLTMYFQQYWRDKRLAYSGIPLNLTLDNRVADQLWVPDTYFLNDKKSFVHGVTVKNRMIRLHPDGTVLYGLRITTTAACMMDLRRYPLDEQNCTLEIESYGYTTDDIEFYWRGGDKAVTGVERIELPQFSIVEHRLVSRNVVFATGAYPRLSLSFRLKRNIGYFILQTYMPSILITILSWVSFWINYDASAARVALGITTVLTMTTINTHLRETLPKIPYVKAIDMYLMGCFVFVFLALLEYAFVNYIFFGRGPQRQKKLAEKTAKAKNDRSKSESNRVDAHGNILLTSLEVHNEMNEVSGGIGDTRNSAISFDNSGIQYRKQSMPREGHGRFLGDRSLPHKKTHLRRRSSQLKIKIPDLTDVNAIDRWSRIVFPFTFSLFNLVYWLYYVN
T1 sequence (P18507 40-475): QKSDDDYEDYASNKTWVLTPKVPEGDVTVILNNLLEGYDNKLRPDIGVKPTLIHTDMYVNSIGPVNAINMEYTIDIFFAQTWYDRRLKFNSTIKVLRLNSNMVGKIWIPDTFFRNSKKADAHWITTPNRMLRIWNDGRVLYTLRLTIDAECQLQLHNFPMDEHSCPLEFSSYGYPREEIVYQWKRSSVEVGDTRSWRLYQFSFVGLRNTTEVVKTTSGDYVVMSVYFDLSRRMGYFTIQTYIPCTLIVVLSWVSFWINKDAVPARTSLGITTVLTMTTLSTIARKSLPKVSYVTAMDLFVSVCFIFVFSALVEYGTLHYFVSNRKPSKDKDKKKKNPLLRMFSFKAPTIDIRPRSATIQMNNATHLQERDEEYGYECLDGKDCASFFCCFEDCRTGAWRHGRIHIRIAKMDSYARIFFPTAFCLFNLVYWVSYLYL
Procedure: (§1) These samples were serially diluted in 100% DMSO in half-log units such that when 5 µl were added into a total assay volume of 500 µl, the final DMSO concentration in the assay was 1%.
(§2) In brief, mouse fibroblasts stably expressing the four subtypes of human GABAARs that contain a benzodiazepine binding site (i.e., α1-, α2-, α3- and α5β3γ2) were grown, harvested, and membranes were prepared and frozen at -80 °C until required. On the day of the assay, membranes were thawed and reconstituted in assay buffer (75 mM Tris.Cl, pH 7.4, 1 mM EDTA, 12.5 mM MgCl2) at a concentration of 101 µg/ml for α1β3γ2 and 51 µg/ml for α2-, α3- and α5β3γ2 membrane. […] Incubations were performed for 1 h at room temperature before being terminated by filtration and rapid washing (2 × 10 ml of ice-cold 50 mM Tris.Cl, pH 7.4 buffer) over Whatman GF/B filters using a Brandel cell harvester. Filters were then placed in scintillation vials, 4 ml of scintillation fluid added, and radioactivity was counted on a Tricarb 2900 scintillation counter.

α2β3γ2 human GABAARs = molecular target: T2, α2β3γ2 human GABAARs (Homo sapiens, UniProt P18507+P47869); experiment: [^3H]flumazenil in vitro binding assay, α2β3γ2; conditions: read-out: Affinity at human GABAAR subtypes, α2β3γ2 (mean Ki)
T2 construct: expressed in transfected cells; host or cells: mouse fibroblasts, stably expressing; membranes prepared
T2 sequence (P47869 29-451): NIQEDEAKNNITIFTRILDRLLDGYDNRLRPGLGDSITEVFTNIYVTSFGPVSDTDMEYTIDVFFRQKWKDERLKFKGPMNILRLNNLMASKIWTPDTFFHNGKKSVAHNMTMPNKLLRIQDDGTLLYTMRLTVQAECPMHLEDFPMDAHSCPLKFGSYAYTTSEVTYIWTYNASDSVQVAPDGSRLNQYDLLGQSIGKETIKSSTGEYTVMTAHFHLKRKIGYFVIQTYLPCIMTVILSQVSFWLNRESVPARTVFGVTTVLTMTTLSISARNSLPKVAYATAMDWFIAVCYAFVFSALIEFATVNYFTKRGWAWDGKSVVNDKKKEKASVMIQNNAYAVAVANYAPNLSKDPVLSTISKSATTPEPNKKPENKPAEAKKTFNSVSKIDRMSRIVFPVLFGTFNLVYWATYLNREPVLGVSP
T2 sequence (P28472 26-473 partner): as the sequence (P28472 26-473 partner) above
T2 sequence (P18507 40-475): as the sequence (P18507 40-475) above
Procedure: as §1, §2

α3β3γ2 human GABAARs = molecular target: T3, α3β3γ2 human GABAARs (Homo sapiens, UniProt P18507+P34903); experiment: [^3H]flumazenil in vitro binding assay, α3β3γ2; conditions: read-out: Affinity at human GABAAR subtypes, α3β3γ2 (mean Ki)
T3 construct: expressed in transfected cells; host or cells: mouse fibroblasts, stably expressing; membranes prepared
T3 sequence (P34903 29-492): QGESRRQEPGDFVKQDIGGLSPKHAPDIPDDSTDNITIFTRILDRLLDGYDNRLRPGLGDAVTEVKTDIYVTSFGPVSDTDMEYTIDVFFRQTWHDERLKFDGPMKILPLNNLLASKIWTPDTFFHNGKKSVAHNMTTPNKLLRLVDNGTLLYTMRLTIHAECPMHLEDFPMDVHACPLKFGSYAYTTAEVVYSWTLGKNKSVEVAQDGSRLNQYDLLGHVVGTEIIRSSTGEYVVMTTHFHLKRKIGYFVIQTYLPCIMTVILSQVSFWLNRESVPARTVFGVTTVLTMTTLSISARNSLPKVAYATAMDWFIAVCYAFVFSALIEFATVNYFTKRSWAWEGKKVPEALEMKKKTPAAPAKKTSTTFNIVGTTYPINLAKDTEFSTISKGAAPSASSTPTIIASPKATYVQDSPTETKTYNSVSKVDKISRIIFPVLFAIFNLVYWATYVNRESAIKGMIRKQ
T3 sequence (P28472 26-473 partner): as the sequence (P28472 26-473 partner) above
T3 sequence (P18507 40-475): as the sequence (P18507 40-475) above
Procedure: as §1, §2

α1β3γ2 human GABAARs = molecular target: T4, α1β3γ2 human GABAARs (Homo sapiens, UniProt P14867+P18507); experiment: [^3H]flumazenil in vitro binding assay, α1β3γ2
T4 construct: expressed in transfected cells; host or cells: mouse fibroblasts, stably expressing; membranes prepared
T4 sequence (P14867 28-456): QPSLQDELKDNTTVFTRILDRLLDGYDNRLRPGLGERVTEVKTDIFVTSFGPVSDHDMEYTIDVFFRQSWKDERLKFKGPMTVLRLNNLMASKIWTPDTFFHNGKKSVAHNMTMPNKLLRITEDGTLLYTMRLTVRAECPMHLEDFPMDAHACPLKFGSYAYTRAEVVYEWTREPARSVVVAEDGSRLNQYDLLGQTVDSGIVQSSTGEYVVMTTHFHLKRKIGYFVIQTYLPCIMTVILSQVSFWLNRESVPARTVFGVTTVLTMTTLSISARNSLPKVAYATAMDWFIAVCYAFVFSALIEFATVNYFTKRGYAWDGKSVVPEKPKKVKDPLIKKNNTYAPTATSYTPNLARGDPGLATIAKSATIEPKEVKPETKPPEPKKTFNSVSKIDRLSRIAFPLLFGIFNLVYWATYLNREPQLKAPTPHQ
T4 sequence (P28472 26-473 partner): as the sequence (P28472 26-473 partner) above
T4 sequence (P18507 40-475): as the sequence (P18507 40-475) above
Procedure: as §1, §2

[2] = mouse fibroblast membranes, 4 nM [^3H]flumazenil, Cheng-Prusoff, mean ± SEM of n = 4 separate assays

**Q.** Which “Stable for prolonged storage” value [1] does the source give for `CCOC(=O)c1ncn2c1CN(C)C(=O)c1cc(B3OC(C)(C)C(C)(C)O3)ccc1-2` [FMZ-BPin, Ethyl 5-methyl-6-oxo-8(4,4,5,5-tetramethyl-1,3,2-dioxaborolan-2-yl)-5,6-dihydro-4H-benzo[f]imidazo[1,5-a][1,4]diazepine-3-carboxylate] here?
**A.** Its value is over 9 months.

**Q.** With `CCOC(=O)c1ncn2c1CN(C)C(=O)c1ccccc1-2` [HMZ, ethyl 5-methyl-6-oxo-5,6-dihydro-4H-benzo[f]imidazo[1,5-a][1,4]diazepine-3-carboxylate] as the compound, how does the Ki (α5β3γ2 human GABAARs) read?
**A.** Its Ki is 1.7 ± 0.2 nM.

**Q.** And the Ki (α2β3γ2 human GABAARs)?
**A.** The Ki was 15 ± 2 nM.

**Q.** What about the Ki (α3β3γ2 human GABAARs) of the same compound?
**A.** The Ki was 11 ± 4 nM.

**Q.** What about the Ki (α1β3γ2 human GABAARs) of the same compound?
**A.** The Ki was 24 ± 3 nM.

**Q.** For `CCOC(=O)c1ncn2c1CN(C)C(=O)c1cc(O)ccc1-2` [OHMZ, Flumazenil impurity B], which Ki (α5β3γ2 human GABAARs; mouse fibroblast membranes, 4 nM [^3H]flumazenil, Cheng-Prusoff, mean ± SEM of n = 4 separate assays, read-out: Affinity at human GABAAR subtypes, α5β3γ2 (mean Ki)) is on record?
**A.** The Ki was 0.5 ± 0.1 nM.

**Q.** And the Ki (α2β3γ2 human GABAARs; [2])?
**A.** The Ki was 7.3 ± 1.5 nM.

**Q.** And the Ki (α3β3γ2 human GABAARs; [2])?
**A.** The Ki was 2.7 ± 0.9 nM.

**Q.** And the Ki (α1β3γ2 human GABAARs; mouse fibroblast membranes, 4 nM [^3H]flumazenil, Cheng-Prusoff, mean ± SEM of n = 4 separate assays, read-out: Affinity at human GABAAR subtypes, α1β3γ2 (mean Ki))?
**A.** Its Ki is 5.4 ± 0.6 nM.
